# What was measured:
# [1] = Dual-Cell β-Catenin Reporter Assay; format: cell-based, Mouse; conditions: Mus musculus, luciferase signal reduced to 50% of DMSO control
# Protocol: (§1) Dual-Cell β-Catenin Reporter Assay
# (§2) Mouse L cells transfected to constitutively produce biologically active murine Wnt-3a, referred to as L-Wnt cells, were purchased from the American Type Culture Collection, ATCC, Manassas, VA (ATCC). These cells were cultured in DMEM supplemented with 10% FCS (Gibco/Invitrogen, Carlsbad, CA), 1% geneticin and 1% sodium pyruvate (Sigma) at 37° C. with 5% CO2. The cells were seeded into 96 well plates and treated with serial dilutions of compound diluted to 0.1% DMSO concentration. After 24 hours, cell supernatants were transferred to a 96 well plate previously seeded with Leading Light® Wnt Reporter Cells, stably transfected with a luciferase gene under control of Wnt pathway response elements. After a further 24 hours, cells are treated with One-glo luciferase assay system (Promega, Madison, WI) and the luminescent signal read by envision. The IC50 of the compound is determined as the concentration that reduces the induced luciferase signal to 50% of the DMSO control.
# (§3) The category “+” refers to compounds with an IC50 of >100 μM. The category “++” refers to compounds with an IC50 of 5 to 100 μM. The category “+++” refers to compounds with an IC50<5 μM.
# [2] = system: L-Wnt cells (murine Wnt-3a) / Leading Light Wnt Reporter Cells (luciferase under control of Wnt pathway response elements); test: Dual-Cell β-Catenin Reporter Assay; format: cell-based, Mouse; conditions: category of IC50; luciferase signal reduced to 50% of DMSO control
# Protocol: as §1, §2, §3
SMILES,IC50 ([1]; category of IC50),IC50 [1],IC50 [2]
Cc1cc(-c2cnn(CC(=O)Nc3ccc(-c4cnccn4)cn3)c2)ccn1 [compound 3],5 to 100 nM,12.2 nM,
Cc1c(-c2ccnc(C(F)(F)F)c2)ncn1CC(=O)Nc1ccc(-c2cnccn2)cn1 [compound 74],< 5 nM,0.05 nM,
CC(C)(C)OC(=O)N1CCN(c2ccc(NC(=O)Cn3cnc(-c4ccnc(C(F)(F)F)c4)c3)nc2)CC1 [compound 6],< 5 nM,0.91 nM,
Cc1cc(-c2nn(CC(=O)Nc3ccc(-c4cnccn4)cn3)cc2C)ccn1 [compound 75],< 5 nM,0.61 nM,
Cc1c(-c2ccnc(C(F)(F)F)c2)ncn1CC(=O)Nc1ccc(-c2ccc(C#N)cc2)cn1 [compound 107],< 5 nM,0.05 nM,
Cc1nn(CC(=O)Nc2ccc(-c3ccc(C#N)cc3)cn2)c(C)c1-c1ccnc(C(F)(F)F)c1 [compound 54],< 5 nM,0.14 nM,
O=C(Cn1cnc(-c2ccnc(C(F)(F)F)c2)c1)Nc1ccc(-c2cncnc2)nc1 [compound 11],,,> 100 nM
Cc1nn(CC(=O)Nc2ccc(-c3cnccn3)cn2)c(C)c1C1CC(C)OC(C)C1 (stereo not shown) [compound 92],,,5 to 100 nM
O=C(Cn1cnc(C2=CCNCC2)c1)Nc1ccc(-c2cnccn2)cn1 [compound 42],,,> 100 nM
Cc1nn(CC(=O)Nc2ccc(-c3cnccn3)cn2)c(C)c1-c1cc(Cl)ncn1 [compound 57],,,5 to 100 nM
Cc1nn(CC(=O)Nc2ccc(-c3cnccn3)cn2)c(C)c1-c1cc(N(C)C)nc(C(F)(F)F)n1 [compound 78],,,< 5 nM
Cc1nn(CC(=O)Nc2ccc(-c3ncccn3)cn2)c(C)c1C1CC(C)OC(C)C1 (stereo not shown) [compound 97],,,5 to 100 nM
Cc1c(-c2ccnc(C(F)(F)F)c2)ncn1CC(=O)Nc1ccc(-c2ncccn2)cn1 [compound 105],,,< 5 nM
Cc1nn(CC(=O)Nc2ccc(-c3cnccn3)cn2)c(C)c1-c1cnn(C(C)C)c1 [compound 62],,,5 to 100 nM
O=C(Cn1cc(-c2cn[nH]c2)cn1)Nc1ccc(-c2cnccn2)cn1 [compound 33],,,> 100 nM
Cc1cc(-c2c(C)nn(CC(=O)Nc3ccc(-c4cnccn4)cn3)c2C)cnn1 [compound 51],,,5 to 100 nM
O=C(Cn1cc(-c2ccnc(C(F)F)c2)cn1)Nc1ccc(-c2cnccn2)cn1 [compound 21],,,< 5 nM
CC(C)n1nccc1-c1cnn(CC(=O)Nc2ccc(-c3cnccn3)cn2)c1 [compound 43],,,> 100 nM
Cc1nn(CC(=O)Nc2ccc(-c3ccccc3C#N)cn2)c(C)c1-c1ccnc(C(F)(F)F)c1 [compound 59],,,< 5 nM
Cc1nn(CC(=O)Nc2ccc(-c3cnccn3)cn2)c(C)c1C1=CCOCC1 [compound 48],,,< 5 nM
CC(=O)Nc1ccc(-c2ccc(NC(=O)Cn3cc(-c4ccnc(C(F)(F)F)c4)c(C)n3)nc2)cn1 [compound 103],,,< 5 nM
O=C(Cn1cc(-c2cc(C(F)(F)F)ncn2)cn1)Nc1ccc(-c2cnccn2)cn1 [compound 41],,,5 to 100 nM

# Reference: patent publication US12202826B2, “N-pyridinyl acetamide derivatives as inhibitors of the Wnt signaling pathway” (Redx Pharma PLC, priority 2014, dated 2025)
